One experiment concerns the target JAK2 (Homo sapiens (Human), UniProt O60674). In words: JAK2 activity inhibition assay (radioactive kinase / Caliper assay). It counts as biochemical. As to the method:
(§1) Peptide substrate, [KKSRGDYMTMQIG], (20 μM) is prepared in reaction buffer (20 mM Hepes pH 7.5, 10 mM MgCl2, 1 mM EGTA, 0.02% Brij35, 0.02 mg/mL BSA, 0.1 mM […], 2 mM DTT, 1% DMSO. TYK2 (Invitrogen) kinase is added, followed by compounds in DMSO. 33PATP is added to initiate the reaction in ATP at 10 μM. Kinase reaction is incubated for 120 min at room temp and reactions are spotted onto P81 ion exchange paper (Whatman #3698-915), and then washed extensively in 0.75% phosphoric acid, prior to reading the radioactivity counts. For JAK2 (Invitrogen) kinase assay the peptide substrate poly[Glu:Tyr] (4:1), 0.2 mg/ml is used, in the reaction carried out the same as for TYK2.
(§2) The caliper machine employs an off chip mobility shift assay to detect phosphorylated peptide substrates from kinase assays, using microfluidics technology. The assays are carried out at ATP concentration equivalent to the ATP Km, and at 1 mM ATP. Compounds are serially diluted in DMSO then further diluted in assay buffer (25 mM HEPES, pH 7.5, 0.01% Brij-35, 0.01% Triton, 0.5 mM EGTA). 5 ul of diluted compound was added into wells first, then 10 ul of enzyme mix was added into wells, followed by 10 uL of substrate mix (peptide and ATP in 10 mM MgCl2) to start reaction. Reaction was incubated at 28° C. for 25 min and then added 25 ul stop buffer (100 mM HEPES, 0.015% Brij-35, 50 mM EDTA), followed by reading with Caliper. JAK2 at 1 nM final concentration and TYK2 at 9.75 nM are from Carna, and substrates used are ATP at 20 and 16 uM, respectively. JAK2 assay uses peptide 22 and TYK2 uses peptide 30 (Caliper), each at 3 uM.
(§3) The compound numbers correspond to the compound numbers in Table 1. Compounds having an activity designated as “A” provided an Ki≤0.01 μM; compounds having an activity designated as “B” provided an Ki of 0.01-0.1 μM; compounds having an activity designated as “C” provided an Ki of 0.1-1.0 μM; and compounds having an activity designated as “D” provided an Ki≥1.0 μM.

Another experiment concerns the target TYK2 (Homo sapiens (Human), UniProt P29597). In words: Tyk2 activity inhibition assay (radioactive kinase / Caliper assay). In kind it is biochemical. As to the method: as §1, §2, §3

This note sets out measurements from US10968236B2, “TYK2 inhibitors and uses thereof” (Nimbus Lakshmi, Inc., priority 2015, dated 2021).

The structures appear in SMILES notation.

Chain of JAK2 (O60674 whole entry): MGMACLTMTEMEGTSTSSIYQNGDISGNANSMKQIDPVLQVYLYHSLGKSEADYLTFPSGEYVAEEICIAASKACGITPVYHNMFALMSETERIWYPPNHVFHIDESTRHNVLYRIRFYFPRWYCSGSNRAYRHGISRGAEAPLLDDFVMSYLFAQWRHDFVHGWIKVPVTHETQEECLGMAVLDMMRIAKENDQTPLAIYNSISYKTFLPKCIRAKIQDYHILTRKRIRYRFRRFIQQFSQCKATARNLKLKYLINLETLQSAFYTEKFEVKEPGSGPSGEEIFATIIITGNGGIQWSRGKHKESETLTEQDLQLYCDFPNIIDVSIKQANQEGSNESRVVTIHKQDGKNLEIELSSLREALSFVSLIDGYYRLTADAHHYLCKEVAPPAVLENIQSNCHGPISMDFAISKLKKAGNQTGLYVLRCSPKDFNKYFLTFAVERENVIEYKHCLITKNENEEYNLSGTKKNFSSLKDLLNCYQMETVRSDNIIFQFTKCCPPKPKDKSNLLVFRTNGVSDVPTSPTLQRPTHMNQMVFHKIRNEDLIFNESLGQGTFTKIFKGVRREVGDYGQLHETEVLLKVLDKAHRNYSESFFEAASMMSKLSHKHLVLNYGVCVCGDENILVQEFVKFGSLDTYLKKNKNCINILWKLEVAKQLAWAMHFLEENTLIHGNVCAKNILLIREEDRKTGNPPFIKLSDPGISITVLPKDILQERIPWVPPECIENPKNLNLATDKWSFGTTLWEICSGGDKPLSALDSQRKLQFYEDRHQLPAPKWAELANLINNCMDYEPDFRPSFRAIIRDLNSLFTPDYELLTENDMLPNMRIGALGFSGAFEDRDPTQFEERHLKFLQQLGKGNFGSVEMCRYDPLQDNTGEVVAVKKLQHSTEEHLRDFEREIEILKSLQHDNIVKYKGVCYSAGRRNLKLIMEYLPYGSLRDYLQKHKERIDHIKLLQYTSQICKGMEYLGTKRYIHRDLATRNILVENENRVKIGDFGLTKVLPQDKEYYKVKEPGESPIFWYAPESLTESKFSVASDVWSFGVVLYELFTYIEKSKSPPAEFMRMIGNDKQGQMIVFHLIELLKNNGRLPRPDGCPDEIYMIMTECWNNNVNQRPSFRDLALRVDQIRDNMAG
Chain of TYK2 (P29597 whole entry): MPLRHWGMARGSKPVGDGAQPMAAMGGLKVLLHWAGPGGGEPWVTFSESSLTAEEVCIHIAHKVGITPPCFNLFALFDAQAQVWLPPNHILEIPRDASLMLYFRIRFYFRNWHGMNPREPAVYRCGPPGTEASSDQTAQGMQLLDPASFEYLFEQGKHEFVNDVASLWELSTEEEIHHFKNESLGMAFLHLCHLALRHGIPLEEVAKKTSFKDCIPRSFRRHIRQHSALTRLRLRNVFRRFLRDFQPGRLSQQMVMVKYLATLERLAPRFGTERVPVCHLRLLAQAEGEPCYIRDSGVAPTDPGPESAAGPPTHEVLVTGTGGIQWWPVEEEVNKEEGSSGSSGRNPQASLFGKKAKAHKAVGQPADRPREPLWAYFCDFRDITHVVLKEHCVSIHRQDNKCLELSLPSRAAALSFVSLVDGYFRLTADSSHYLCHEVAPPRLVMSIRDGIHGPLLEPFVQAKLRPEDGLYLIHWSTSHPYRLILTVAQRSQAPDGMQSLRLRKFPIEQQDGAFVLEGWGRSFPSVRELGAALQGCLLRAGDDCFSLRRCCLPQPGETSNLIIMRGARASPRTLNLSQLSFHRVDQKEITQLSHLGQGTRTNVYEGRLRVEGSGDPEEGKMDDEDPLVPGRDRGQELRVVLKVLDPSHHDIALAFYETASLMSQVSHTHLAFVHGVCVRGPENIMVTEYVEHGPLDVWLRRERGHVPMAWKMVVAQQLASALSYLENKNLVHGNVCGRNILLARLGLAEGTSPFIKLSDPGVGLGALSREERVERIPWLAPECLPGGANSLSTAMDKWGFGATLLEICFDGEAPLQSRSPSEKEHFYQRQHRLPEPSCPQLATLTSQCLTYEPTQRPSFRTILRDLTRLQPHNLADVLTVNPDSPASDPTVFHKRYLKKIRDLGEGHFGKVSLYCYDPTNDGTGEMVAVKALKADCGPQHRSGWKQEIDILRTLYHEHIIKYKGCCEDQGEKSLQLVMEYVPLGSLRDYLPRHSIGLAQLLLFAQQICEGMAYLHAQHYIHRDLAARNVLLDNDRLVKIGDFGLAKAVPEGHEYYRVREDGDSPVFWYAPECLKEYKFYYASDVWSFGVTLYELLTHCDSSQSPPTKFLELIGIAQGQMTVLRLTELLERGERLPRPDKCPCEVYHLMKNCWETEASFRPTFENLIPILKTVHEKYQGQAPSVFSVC

As a reminder, the Ki is the dissociation constant of the complex between target and ligand, obtained from inhibition or displacement. As for `CC1(c2ccc(Nc3cc(-c4c(F)cccc4F)nc4c3C(=O)NC4)nc2)CC(C)(C)N(C2=CCOCC2)C1=O` (centres unmarked) [Compound I-55, 2-(2,6-difluorophenyl)-4-((5-(1-(3,6-dihydro-2H-pyran-4-yl)-3,5,5-trimethyl-2-oxopyrrolidin-3-yl)pyridin-2-yl)amino)-6,7-dihydro-5H-pyrrolo[3,4-b]pyridin-5-one], the Ki at JAK2 and on TYK2 was no more than 10 nM throughout.

In the case of `C[C@@](O)(C(=O)O)c1ccc(Nc2nc(-c3c(F)cccc3F)nc3c2C(=O)NC3)cc1` [Compound I-7, (S)-2-(4-((2-(2,6-difluorophenyl)-5-oxo-6,7-dihydro-5H-pyrrolo[3,4-d]pyrimidin-4-yl)amino)phenyl)-2-hydroxypropanoic acid], the Ki on JAK2 is 100 to 1000 nM; on TYK2, no more than 10 nM.

For the molecule `CC1(C)COc2cc(Nc3nc(-c4c(F)cccc4F)nc4c3C(=O)NC4)ccc21` [Compound I-23, 2-(2,6-difluorophenyl)-4-((3,3-dimethyl-2,3-dihydrobenzofuran-6-yl)amino)-6,7-dihydro-5H-pyrrolo[3,4-d]pyrimidin-5-one], the Ki on JAK2 is 100 to 1000 nM; on TYK2, no more than 10 nM.

As for `C[C@@](O)(c1ccc(Nc2nc(-c3c(F)cccc3F)nc3c2C(=O)NC3)cc1)C(F)(F)F` [Compound I-35, (R)-2-(2,6-difluorophenyl)-4-((4-(1,1,1-trifluoro-2-hydroxy-propan-2-yl)phenyl)amino)-6,7-dihydro-5H-pyrrolo[3,4-d]pyrimidin-5-one], on JAK2, the inhibitory constant (Ki) was in the range of 100 to 1000 nM.

As for `N#Cc1cccc(F)c1-c1cc(Nc2ccc(N3C[C@H]4COC[C@H]4C3)nc2)c2c(n1)CNC2=O` [Compound I-74, 3-fluoro-2-(5-oxo-4-((6-((3aR,6aS)-tetrahydro-1H-furo[3,4-c]pyrrol-5(3H)-yl)pyridin-3-yl)amino)-6,7-dihydro-5H-pyrrolo[3,4-b]pyridin-2-yl)benzonitrile], the inhibition constant (Ki) is 100 to 1000 nM on JAK2 and no more than 10 nM at TYK2.

For `N#Cc1cccc(F)c1-c1cc(Nc2ccc(N3CC[C@@]4(C[C@@H](O)CO4)C3)cn2)c2c(n1)CNC2=O` [Compound I-90], the inhibitory constant (Ki) at JAK2 and on TYK2 was no more than 10 nM each time.

Consider `CC(O)(c1ccc(Nc2nc(-c3c(F)cccc3F)nc3c2C(=O)NC3)cc1)C(F)(F)F` (centres unmarked) [Compound I-33, 2-(2,6-difluorophenyl)-4-((4-(1,1,1-trifluoro-2-hydroxy-propan-2-yl)phenyl)amino)-6,7-dihydro-5H-pyrrolo[3,4-d]pyrimidin-5-one], for which the values for the inhibitory constant (Ki) at JAK2 and at TYK2 were 100 to 1000 nM and no more than 10 nM, respectively.

`C[C@](O)(C(=O)O)c1ccc(Nc2nc(-c3c(F)cccc3F)nc3c2C(=O)NC3)cc1` [Compound I-8, (R)-2-(4-((2-(2,6-difluorophenyl)-5-oxo-6,7-dihydro-5H-pyrrolo[3,4-d]pyrimidin-4-yl)amino)phenyl)-2-hydroxypropanoic acid]: the Ki on JAK2 was 100 to 1000 nM; at TYK2 it was no more than 10 nM.

Regarding `CN1C(=O)[C@@](C)(c2ccc(Nc3nc(-c4c(F)cccc4F)nc4c3C(=O)NC4)cc2)Oc2ccccc21` [Compound I-41, (R)-2-(4-((2-(2,6-difluorophenyl)-5-oxo-6,7-dihydro-5H-pyrrolo[3,4-d]pyrimidin-4-yl)amino)phenyl)-2,4-dimethyl-2H-benzo[b][1,4]oxazin-3(4H)-one], the Ki on JAK2 and on TYK2 was 100 to 1000 nM in each case.

As for `CCNC(=O)[C@](O)(CC(F)(F)F)c1ccc(Nc2nc(-c3c(F)cccc3F)nc3c2C(=O)NC3)cc1` [Compound I-27, (S)-2-(4-((2-(2,6-difluorophenyl)-5-oxo-6,7-dihydro-5H-pyrrolo[3,4-d]pyrimidin-4-yl)amino)phenyl)-N-ethyl-4,4,4-trifluoro-2-hydroxybutanamide], the inhibitory constant (Ki) at JAK2 was in the range of 10 to 100 nM.

Take `CC1(C)Cc2ccc(Nc3cc(-c4c(F)cccc4F)nc4c3C(=O)NC4)cc2O1` [Compound I-71, 2-(2,6-difluorophenyl)-4-((2,2-dimethyl-2,3-dihydrobenzofuran-6-yl)amino)-6,7-dihydro-5H-pyrrolo[3,4-b]pyridin-5-one]: the Ki at JAK2 was in the range of 100 to 1000 nM; at TYK2, 10 to 100 nM.

`CCNC(=O)C(C)(C)c1ccc(Nc2cc(-c3c(F)cccc3C#N)nc3c2C(=O)NC3)cc1` [Compound I-81, 2-(4-((2-(2-cyano-6-fluorophenyl)-5-oxo-6,7-dihydro-5H-pyrrolo[3,4-b]pyridin-4-yl)amino)phenyl)-N-ethyl-2-methylpropanamide]: the inhibition constant Ki at JAK2 and on TYK2 was no more than 10 nM each time.

For `CCNC(=O)C(C)(O)c1ccc(Nc2nc(-c3c(F)cccc3F)nc3c2C(=O)NC3)cc1` (centres unmarked) [Compound I-14, 2-(4-((2-(2,6-difluorophenyl)-5-oxo-6,7-dihydro-5H-pyrrolo[3,4-d]pyrimidin-4-yl)amino)phenyl)-N-ethyl-2-hydroxypropanamide], the inhibition constant Ki was 100 to 1000 nM at JAK2 and no more than 10 nM at TYK2.

On to `CC1(C)COc2nc(Nc3cc(-c4c(F)cccc4C#N)nc4c3C(=O)NC4)ccc21` [Compound I-85, 2-(4-((3,3-dimethyl-2,3-dihydrofuro[2,3-b]pyridin-6-yl)amino)-5-oxo-6,7-dihydro-5H-pyrrolo[3,4-b]pyridin-2-yl)-3-fluorobenzonitrile], for which the Ki on JAK2 and on TYK2 was no less than 1000 nM throughout.

As for `CCNC(=O)C(C)(N)c1ccc(Nc2nc(-c3c(F)cccc3F)nc3c2C(=O)NC3)cc1` (centres unmarked) [Compound I-9, 2-amino-2-(4-((2-(2,6-difluorophenyl)-5-oxo-6,7-dihydro-5H-pyrrolo[3,4-d]pyrimidin-4-yl)amino)phenyl)-N-ethylpropanamide], the Ki on JAK2 and on TYK2 was 10 to 100 nM in each case.

As for `CC(N)(C(=O)O)c1ccc(Nc2nc(-c3c(F)cccc3F)nc3c2C(=O)NC3)cc1` (centres unmarked) [Compound I-32, 2-amino-2-(4-((2-(2,6-difluorophenyl)-5-oxo-6,7-dihydro-5H-pyrrolo[3,4-d]pyrimidin-4-yl)amino)phenyl)propanoic acid], the inhibition constant Ki was no less than 1000 nM at JAK2 and no more than 10 nM on TYK2.

For the molecule `C[C@](O)(c1ccc(Nc2cc(-c3c(F)cccc3F)nc3c2C(=O)NC3)cc1)C(F)(F)F` [Compound I-43, (S)-2-(2,6-difluorophenyl)-4-((4-(1,1,1-trifluoro-2-hydroxypropan-2-yl)phenyl)amino)-6,7-dihydro-5H-pyrrolo[3,4-b]pyridin-5-one], the Ki on JAK2 was 10 to 100 nM.

Take `O=C1NCc2nc(-c3c(F)cccc3F)cc(Nc3ccc(C(=O)N4C[C@H]5COC[C@H]5C4)cc3)c21` [Compound I-63, 2-(2,6-difluorophenyl)-4-((4-((3aR,6aS)-hexahydro-1H-furo[3,4-c]pyrrole-5-carbonyl)phenyl)amino)-6,7-dihydro-5H-pyrrolo[3,4-b]pyridin-5-one]: the Ki on JAK2 is 10 to 100 nM; at TYK2, no more than 10 nM.

Consider `CN1C(=O)[C@](C)(c2ccc(Nc3nc(-c4c(F)cccc4F)nc4c3C(=O)NC4)cc2)Oc2ccccc21` [Compound I-40, (S)-2-(4-((2-(2,6-difluorophenyl)-5-oxo-6,7-dihydro-5H-pyrrolo[3,4-d]pyrimidin-4-yl)amino)phenyl)-2,4-dimethyl-2H-benzo[b][1,4]oxazin-3(4H)-one], for which, at TYK2, the Ki lay within 100 to 1000 nM.

As to `CCNC(=O)[C@@](O)(CC(F)(F)F)c1ccc(Nc2nc(-c3c(F)cccc3F)nc3c2C(=O)NC3)cc1` [Compound I-28, (R)-2-(4-((2-(2,6-difluorophenyl)-5-oxo-6,7-dihydro-5H-pyrrolo[3,4-d]pyrimidin-4-yl)amino)phenyl)-N-ethyl-4,4,4-trifluoro-2-hydroxybutanamide], the Ki at JAK2 was in the range of 100 to 1000 nM.

Take `C[C@@](O)(c1ccc(Nc2cc(-c3c(F)cccc3F)nc3c2C(=O)NC3)cc1)C(F)(F)F` [Compound I-44, (R)-2-(2,6-difluorophenyl)-4-((4-(1,1,1-trifluoro-2-hydroxy-nronan-2-yl)phenyl)amino)-6,7-dihydro-5H-pyrrolo[3,4-b]pyridin-5-one]: on JAK2, the Ki lay within 100 to 1000 nM.

Take `O=C1NCc2nc(-c3c(F)cccc3F)nc(Nc3ccc([C@@H](O)C(F)(F)F)cc3)c21` [Compound I-31, (R)-2-(2,6-difluorophenyl)-4-((4-(2,2,2-trifluoro-1-hydro-xyethyl)phenyl)amino)-6,7-dihydro-5H-pyrrolo[3,4-d]pyrimidin-5-one]: the inhibition constant Ki at JAK2 was 10 to 100 nM.

Regarding `O=C1NCc2nc(-c3c(F)cccc3F)nc(Nc3ccc([C@H](O)C(F)(F)F)cc3)c21` [Compound I-30, (S)-2-(2,6-difluorophenyl)-4-((4-(2,2,2-trifluoro-1-hydroxyethyl)phenyl)amino)-6,7-dihydro-5H-pyrrolo[3,4-d]pyrimidin-5-one], the inhibitory constant (Ki) at JAK2 was in the range of 100 to 1000 nM.
